SMILES	melting point [°C]
Nc1ccccc1-c1[nH]ncc1[N+](=O)[O-]	175 to 176
CCOC(=O)C1=C(C)N=C(SCc2ccc(OC)cc2)N(C(=O)c2ccc([N+](=O)[O-])cc2)C1c1cccc([N+](=O)[O-])c1 (configuration not stated)	121 to 123
CCc1cccc(CC(=O)O)c1OCCCc1cn(-c2ncc(Cl)cc2Cl)nc1C(C)C	93 to 95
Cc1ccc(S(=O)(=O)N(CCN(CC(=O)Cl)S(=O)(=O)c2ccc(C)cc2)CCN(CC(=O)Cl)S(=O)(=O)c2ccc(C)cc2)cc1	136 to 137
COc1cc2c(cc1F)C(=O)C(=O)N2	260
Nc1c(Br)cc(O)c2c1C(=O)c1ccccc1C2=O	226 to 228
O=C(O)C=CC(=O)c1ccc(Oc2ccc(Cl)c(Cl)c2)cc1	155 to 156
S=c1[nH]nc(Cc2ccccc2Nc2c(Cl)cccc2Cl)o1	168 to 170
COc1nc(NC(=O)NS(=O)(=O)c2c(Br)csc2C(=O)c2cccs2)nc(OC)n1	115
CNS(=O)(=O)c1ccccc1S(=O)(=O)NC(=O)Nc1nc(C)cc(C)n1	180 to 185
COc1ccc(C(=O)Nc2ccccc2)cc1NC(=S)NC(=O)c1ccccc1	219 to 222
O=c1c2ccccc2nc(-n2ccnc2)n1-c1ccccc1	163 to 165
CCC(NC(=NC#N)Nc1ccc(N(C)C)nc1)c1ccccc1 (configuration not stated)	107 to 113
O=C1c2ccccc2Nc2ccccc2N1CCCCl	127 to 131
COc1ccccc1COc1ccc(S(=O)(=O)c2ccc(C)nc2Nc2ccc(Cl)cc2C#N)cc1	178 to 180
Cc1cnn(-c2cc(F)c(C#N)cc2F)c(=O)c1	223
O=C(O)CNC(=Nc1ccccc1)NC1CCCCC1	160 to 165
CCOC(=O)c1ccc(N(C)Cc2ccc3nc(C)[nH]c(=O)c3c2)s1	> 200
CCOC(=O)C1=Cc2cc(Cl)cc(C#N)c2OC1C(F)(F)F (configuration not stated)	115 to 116
CS(=O)(=O)c1cc2c(c(C(=O)O)c1)OCCO2	247 to 249
COC(=O)c1ccc(C23CC4CC(CC(C4)C2)C3)c(O)c1	244 to 246
O=C(NCc1ncc(O)c2ccccc12)c1ccccc1	130 to 131
NS(=O)(=O)c1cc2cc(N(Cc3ccccc3)Cc3ccccc3)ccc2s1	122 to 124
CC(=O)Nc1ccc(C(=O)NCc2ccc(-n3c(-c4cccnc4N)nc4cc(C)cnc43)cc2)cc1	171 to 172

SMILES	melting point [°C]
O=CC(=Cc1ccc(OC(=O)c2ccccc2)cc1)C(C=O)=Cc1ccc(OC(=O)c2ccccc2)cc1	207 to 208
Cc1nnc(-c2ccccn2)[nH]c1=O	299 to 300
CCCCCCCCCCCCNC(=O)C1CCC(=O)N1 (configuration not stated)	114 to 116
COc1ccc(F)cc1C(C)(C)CC(O)(Cn1[nH]c(=O)c2ccccc21)C(F)(F)F (configuration not stated)	141 to 144
Cc1ccc(-n2cc(-c3cccn4nc(Nc5ccc(C6CCN(C(=O)OC(C)(C)C)CC6)cc5)nc34)cn2)cc1	124 to 125
CON=C(Cl)c1ccccc1S(N)(=O)=O	155 to 158
Cn1cccc1C(=O)C(C#N)C(=O)Nc1ccc(O)cc1 (configuration not stated)	182 to 184
COc1ccccc1Oc1c(O)nc(SC)nc1O	206 to 210
CC(Cc1ccc(-c2ccc(Cl)cc2)cc1Cl)NC(=O)c1cn(C)nc1C(F)F (configuration not stated)	96 to 98
OC1(c2ccc(-c3ccccn3)cc2)CN2CCC1CC2 (configuration not stated)	237 to 238
COC(=O)C(Oc1ccc(Cl)c(C(F)(F)F)c1)c1ccc(Cl)cc1 (configuration not stated)	58
CCOC(=O)C1=C(C)NC(C(OCC)OCC)=C(C(=O)OCC)C1c1cc([N+](=O)[O-])ccc1Cl (configuration not stated)	117 to 118
CC(C)(C)OC(=O)NCCSCC1(C)NC(=O)NC1=O (configuration not stated)	134 to 136
COc1ccc(Cn2nc(-c3ccc(OC)cc3)c(-c3ccc(OC)cc3)cc2=O)cc1	171 to 172
c1ccc(COc2n[nH]cc2-c2ccccc2)cc1	163
Nc1ccc(C(O)C(COc2ccccc2)N2CCC(Cc3ccccc3)CC2)cc1 (configuration not stated)	146 to 147
C[C@@H](N1CCN(c2ccc(-n3cnn(Cc4ccc(OCC(F)(F)C(F)F)cc4)c3=O)cc2)CC1)[C@](O)(Cn1cncn1)c1ccc(F)cc1F	83 to 85
CC(=O)Nc1ccc2c(c1)CCCC2	62
COc1ccccc1C1CC(=O)CC(c2ccccc2OC)N1C (configuration not stated)	146 to 148
O=C(O)c1ccc(Cl)nc1Nc1ccccc1	181 to 185
CNc1ccc(C)nc1N	112 to 113
CN(c1cccc2cc(-c3nc(CC(=O)O)cs3)[nH]c12)S(=O)(=O)c1cccs1	214 to 215
COc1cc(NC(=S)NC2CCCCC2)ccc1NNC=O	131 to 133
COCS(=O)(=O)c1ccc(C(CC2CCCC2)C(=O)O)cc1 (configuration not stated)	184 to 187

SMILES	melting point [°C]
Cc1cc(-c2c[nH]c(N)n2)ccn1	226 to 228
O=C(O)CC=CCC(=O)NCCc1ccccc1	101 to 103
COc1ccc2nc(N)nc(C3CCN(C(=O)c4ccccc4)CC3)c2c1	172 to 173
CNC(=O)COc1cc(C)ccc1O	163 to 165
CCCC1=NN(c2ccccn2)C(=O)C1=CNc1ccccc1CC	151
NS(=O)(=O)c1ccc(-c2cnn(-c3ccc(F)cc3)c(=O)c2Oc2ccc(F)cc2)cc1	227 to 229
Cn1c(=O)c2cnc(-c3ccccc3)nc2n(C)c1=O	279 to 281
Cc1cn(-c2cc(C=O)c(N)c(C(F)(F)F)c2)c(C)n1	200 to 202
CC=CCn1c(CC)c(C)c2cnnc(OCc3ccc(F)cc3)c21	74 to 76
O=c1[nH]cccc1Cc1cccc(F)c1	110
CC(C)(OCc1cc2cc(C(F)(F)F)ccc2n1S(=O)(=O)c1ccccc1)C(=O)O	134 to 136
CCCCCCCCCCC[C@H](CC(=O)N[C@@H](CO)C(=O)OCc1ccccc1)OC(=O)CCCCCCCCCC	53 to 54
O=[N+]([O-])c1sc(-n2cccc2)nc1Cl	138 to 139
CC(C)(C)OC(=O)CC[C@H](NC(=O)c1ccc(NCCc2ccccc2)cc1F)C(=O)OC(C)(C)C	71 to 72
CC1(C)OC(=S)Nc2ccc(-c3cc(C#N)cs3)cc21	258 to 259
COc1cccc2c(N(C)c3ccccc3)nc(N(C)c3ccccc3)nc12	169 to 170
O=C(O)CC1CCCc2c1n(Cc1cccc(Cl)c1)c1c(F)cc(F)cc21 (configuration not stated)	188 to 189
Cc1cc(NCCCCCCBr)ccc1O	144 to 146
CCCN(CCC)C(=O)CNc1nc(-c2ccccc2)nc(C)c1CC	83 to 84
Fc1ccc(Nc2ncnc3cnc(NC4CCC(N5CCCC5)CC4)nc23)cc1Cl (configuration not stated)	192 to 195
COC(=O)c1ccc(SC)c(OC2CCCC2)c1	53 to 55
CC(C)(S)C(=O)NC(=O)[C@@H](N)CS	124 to 125
CC(=O)Nc1ccc2c3c1c(=O)c(C(=O)O)cn3C(C)CC2 (configuration not stated)	277 to 279
CCn1cc(C(=O)O)c(=O)c2cc(F)c(N3CC(CNC)C3)nc21	180 to 182

Source: a melting point compilation (Tetko et al.; mined from patent text by program, amines drawn as free bases though some values may be those of a salt)
